Entries after “also recorded” stand apart in the source; their conditions may differ. Marks after values point to notes of the source that are not given here.
What was measured:
[1] = test system: Candida albicans (RCMB 5002); test: Antimicrobial screening, disc diffusion; format: cell-based; details: compounds isolated from Cunninghamella elegans
Experimental: (§1) The alcoholic extracts obtained were used for testing their antimicrobial activity. Each extract (0.5 g) was dissolved in 10 ml water. Same concentrations for the successive extracts (using diethyl ether, chloroform, ethyl acetate and n-butanol) were also prepared.
(§2) The representatives of Gram negative bacteria, namely Salmonella typhimuium (RCMB 0104), Escherichia coli (RCMB 0103), Pseudomonas aeruginosa (RCMB 0102) and Gram positive bacteria, namely Bacillus subtilis (RCMB 0107), Staphylococcus aureus (RCMB 0106), Streptococcus pyogenes (RCMB 0109), unicellular fungi, namely Candida albicans (RCMB 5002) and filamentous fungi, namely Aspergillus fumigatus (RCMB 2003) and Penicllium expansum (RCMB 1006) were used as test organisms (RCMB: The Regional Center for Mycology and Biotechnology, Al-azhar University Nasser City, Cairo, Egypt).
(§3) For antimicrobial screening the well known disc diffusion and agar well diffusion methods were used, together with the determination of minimum inhibitory concentration (MIC), see Duguid et al., Microbial Infections, The English Language Book Society, Churchill Livingston, Edingburgh, London, 1978; vol. 1, page 110.
(§4) Disc diffusion method: The agar disc diffusion method is employed for the determination of antimicrobial activities of the extracts of the investigated fungal species. Sterilized paper discs (Whatman No. 1) ([…]) were separately soaked in the extracts and transferred onto the surface of growth media seeded with the test organism. After incubation period, following suitable conditions for the test organism, the diameter of the inhibition zone around the discs was measured in millimeters. The obtained result was the mean of three experiments.
(§5) Each fungal species was grown on malt extract media at 28±2° C. for 14 days. The metabolites of the fungal species were screened for antimicrobial activity. The inhibition zones around each disc were measured, in millimeter, and recorded (Tables 1).

[2] = test system: Pseudomonas aeruginosa (RCMB 0102); test: Antimicrobial screening, disc diffusion; format: cell-based; details: Pseudomonas aeurginosa; compounds isolated from Cunninghamella elegans
Experimental: as §1, §2, §3, §4, §5

[3] = test system: Escherichia coli (RCMB 0103); test: Antimicrobial screening, disc diffusion; format: cell-based; details: compounds isolated from Cunninghamella elegans
Experimental: as §1, §2, §3, §4, §5

[4] = test system: Bacillus subtilis (RCMB 0107); test: Antimicrobial screening, disc diffusion; format: cell-based; details: compounds isolated from Cunninghamella elegans
Experimental: as §1, §2, §3, §4, §5

[5] = test system: Penicllium expansum (RCMB 1006); test: Antimicrobial screening, disc diffusion; format: cell-based; details: Penicillium expansum; compounds isolated from Cunninghamella elegans
Experimental: as §1, §2, §3, §4, §5

[6] = test system: Aspergillus fumigatus (RCMB 2003); test: Antimicrobial screening, disc diffusion; format: cell-based; details: compounds isolated from Cunninghamella elegans
Experimental: as §1, §2, §3, §4, §5

[7] = test system: Staphylococcus aureus (RCMB 0106); test: Antimicrobial screening, disc diffusion; format: cell-based; details: compounds isolated from Cunninghamella elegans
Experimental: as §1, §2, §3, §4, §5

[8] = test system: Streptococcus pyogenes (RCMB 0109); test: Antimicrobial screening, disc diffusion; format: cell-based; details: compounds isolated from Cunninghamella elegans
Experimental: as §1, §2, §3, §4, §5

[9] = test system: Staphylococcus aureus infected wounds; test: Wound healing activity, excision wound model; format: in vivo, guinea pig
Experimental: Swiss albino mice (20-25 g), male Sprague-Dawley rats (160-180 g) and male guinea pigs (240-260 g) were employed in the study. The animals were left for 2 weeks at room conditions to ensure stabilization before use. They were maintained on standard pellet diet and water ad libitum throughout the experiment. • a) Acute Toxicity: Mice were divided into groups of 6 and the methanol extracts of C. blakesleeana, C. elegans and C. homothallica were administered orally in increasing doses. […] Rats of the 1^St group were given a vehicle (1% v/v Tween 80) in a dose of 5 ml kg^−1 and left as normal control. Rats of the 2nd, 3rd, and 4th groups were administered the methanol extracts of C. blakesleeana, C. elegans and C. homothallica, respectively in a dose of 200 mg kg^−1. All medications were administered orally via the aid of an oral tube for 35 days. […] At the end of the experimental period, blood samples (2 mL) were collected from the retro-orbital venous plexus of each rat (under ether anesthesia) into clean centrifuge tubes. The blood samples were allowed to clot at room temperature for 30 min after which they were centrifuged at 10,000 rpm for 5 minutes. Sera were separate with Pasteur pipette into sterile serum sample tubes and used for biochemical assay.
Measurement of Liver and Kidney Function Markers: • Liver functions were evaluated by measuring the serum activity of aspartate aminotransferase (AST) and alanine aminotransferase (ALT) following the method of Reitman and Frankel, Am. J. Clin. Path., 28: 55-60, alkaline phosphatase enzyme (ALP) by the method of Babson et al., Clinical Chemistry, 12: 482-490. Serum levels of total bilirubin, total proteins and albumin were also assayed. Globulin was obtained from the difference between total proteins and albumin. Serum concentrations of uric acid, urea and creatinine were determined colormetrically as measures of kidney functions. All measurements were carried out by protocols well known in the art. • c) Wound Healing Activity: The excision wound model was used to monitor wound contraction and wound closure time. Four groups of male guinea pigs were used in the experiment with 6 animals in each group. At the beginning of the experiment, the dorsal skin of each guinea pig was shaved with an electric clipper. After 24 hours, all animals were anesthetized by diethyl ether and the shaved areas were sterilized with 70% alcoholic solution. A predetermined dorsal area (15 mm×20 mm) was inflicted by cutting away a full thickness of skin (2 mm depth) using toothed forceps, scalpel and pointed scissors. A fresh surgical blade was used for the perpendicular cut in each animal and tension of skin was kept constant during the procedure. Local infection with Staphylococcus aureus was introduced into wounds using 0.5 mL of 10^8 bacteria mL^−1 inoculums. The wounds were left undressed to the open environment and the animals were kept individually in separate cages. • Wounds treatment: Wounds were air exposed and treatment began 24 h after injury. Wounds of the control animals were treated with the vehicle (1% v/v Tween 80). Guinea pigs of the second and third group were treated with total alcohol extract of C. elegans and the isolated compound (adenosine) in a concentration of 5 mg mL^−1, while animals of the fourth group were medicated with latamoxef (Moxalactam)® in a concentration of 30 μg mL^−1 (Reference group). The vehicle, extract, and reference drug were applied topically on the wound surface once a day for 18 days. […] of each tested material was applied slowly, using an insulin syringe, from the central point extending outside the wound area to ensure inclusion of the edges. Swabs were taken on day 5 to confirm the presence of the expected organisms in the pus. • Assessment of wound healing: The wound areas were measured while the animals were under anaesthesia on days 0, 4, 7, 10, 14, and 18 post-wounding by tracing the wound areas onto a transparent tracing paper. […]

[10] = topical 5 mg mL^−1 once a day, n = 6
[11] = topical 5 mg mL^−1 once a day, n = 6, listed as compound 1 (adenosine)

## Nc1ncnc2c1ncn2C1OC(CO)C(O)C1O (centres unmarked) [Compound 4, 2-(6-amino-9H-purine-9-yl)-5-(hydroxymethyl)oxolane-3,4-diol]
[1]
  Diameter of inhibition zone: 00.0 mm
[2]
  Diameter of inhibition zone: 00.0 mm
[3]
  Diameter of inhibition zone: 00.0 mm
[4]
  Diameter of inhibition zone: 00.0 mm
[5]
  Diameter of inhibition zone: 00.0 mm
[6]
  Diameter of inhibition zone: 00.0 mm
[7]
  Diameter of inhibition zone: 30.0 ± 0.1 mm
[7]; listed as compound 4
  Diameter of inhibition zone: 30.0±0.01 mm
[8]
  Diameter of inhibition zone: 00.0 mm
[9]; Day 14, topical 5 mg mL^−1
  wound contraction: 76.50%
[9]; day 0, topical 5 mg mL^−1 once a day, n = 6
  Wound area on day 0: 300 ± 0.0 mm^2
[9]; day 4, topical 5 mg mL^−1 once a day, n = 6
  Wound area on day 4: 241.2 ± 4.23* mm^2
[9]; day 7, topical 5 mg mL^−1 once a day, n = 6
  Wound area on day 7: 168.1 ± 2.18** mm^2
[9]; [10]
  Wound area on day 10: 83.4±3.16 mm^2
  Wound area on day 14: 22.4±1.15 mm^2
  Wound area on day 18: 0.0 mm^2
[9]; [11]
  Wound area on day 10: 85.6 ± 4.13*** mm^2
  Wound area on day 14: 23.3 ± 1.11*** mm^2
  Wound area on day 18: 0.0 ± 0.0 mm^2
[9]; topical 5 mg mL−1 on excised infected wound
  wound healing effect (in words): effective in healing excision type of wounds; also recorded: good wound healing effect
